# Data from US4213895A, “N-[N-[N-[ N-[N-(5-Oxo-L-prolyl)-L-histidyl]-L-tryptophyl]-L-seryl]-L-tyrosyl]glycin e azide, an intermediate of the releasing agent of luteinizing hormone (LW) and of follicle stimulating hormone (FSH)” (American Home Products Corporation, priority 1979, dated 1980).
# How the values were obtained:
# [1] = system: induction of ovulation in the rat; assay: Induction of ovulation in the rat, modification of the assay of Arimura et al., Endocrinology 80, 515; type: in vivo; details: acid addition salt
# Description: (§1) Exp. Biol. Med., 128, 807 (1968).
# LH- and FSH-releasing [2] = assay: Bioassays, not specified, comparison with the natural hormone; details: diacetate salt
# Description: Said last-named compound (VI) is condensed by means of the azide method via the azide, N-[N-[N-[N-[N-(5-oxo-L-prolyl)-L-histidyl]-L-tryptophyl]-L-seryl]-L-tyrosyl]glycine azide, with N-[N-[N-(N-leucyl)-L-arginyl]-L-prolyl]glycinamide diacetate (V) to yield the desired decapeptide 5-oxo-L-prolyl-L-histidyl-L-tryptophyl-L-seryl-L-tyrosylglycyl-L-leucyl-L- arginyl-L-prolylglycinamide (I) which is isolated in the form of its diacetate salt. The latter salt may be converted, if desired, into a different acid addition salt, e.g. a salt with a pharmaceutically acceptable acid, by treatment with the appropriate ion exchange resin in the manner described by Boissonas et al., Helv. Chim. Acta 43, 1349 (1960). Suitable ion exchange resins are strongly basic anion exchange resins, for example those listed in Greenstein and Winitz "Chemistry of the Amino Acids", Hohn Wiley and Sons, Inc., New York and London 1961, Vol. 2, p. 1456. Basically substituted cross-linked polystyrene resins such as Amerlite IRA-400 or IRA-410 are preferred. The above diacetate may also be converted to a salt of low solubility in body fluids by treatment with a slightly water-soluble pharmaceutically acceptable acid. The acid addition salts of the LH- and FSH-releasing hormone produced by the process of this invention with pharmacologically acceptable acids are biologically fully equivalent to the natural hormone. […]
# [3] = system: induction of ovulation in the hamster; assay: Induction of ovulation in the hamster (Arimura et al., Science 174, 511); type: in vivo; details: acid addition salt
# Description: as §1
# LH- and FSH-releasing [4] = assay: LH- and FSH-releasing activity, radioimmunoassay described by Niswender et al.; details: acid addition salt
# Description: as §1
compound,measurement,setting,value
"CC(C)C[C@H](NC(=O)CNC(=O)[C@H](Cc1ccc(O)cc1)NC(=O)[C@H](CO)NC(=O)[C@H](Cc1c[nH]c2ccccc12)NC(=O)[C@H](Cc1c[nH]cn1)NC(=O)[C@@H]1CCC(=O)N1)C(=O)N[C@@H](CCCNC(=N)N)C(=O)N1CCC[C@H]1C(=O)NCC(N)=O [I, 5-oxo-L-prolyl-L-histidyl-L-tryptophyl-L-seryl-L-tyrosylglycyl-L-leucyl-L-arginyl-L-prolylglycinamide]",activity in induction of ovulation relative to the natural hormone,[1],equally active
same,potency in bioassays relative to the natural product,LH- and FSH-releasing [2],as potent as the latter
same,activity in induction of ovulation relative to the natural hormone,[3],equally active
same,LH- and FSH-releasing activity relative to the natural hormone,LH- and FSH-releasing [4],as active as the natural hormone
